Test results as given in US10314843B2, “Combinations for the treatment of neoplasms using quiescent cell targeting and inhibitors of mitosis” (Felicitex Therapeutics, Inc., priority 2016, dated 2019).

Experiments:
Type in all cases: cell-based
OVCAR3 cells = assay: CellTiter-Glo cell viability assay, OVCAR3 cells; conditions: Homo sapiens, OVCAR-3, OVCAR3 cells
Description: (§1) The following cell lines were obtained from ATCC and cultured according to the ATCC recommendations: DMS273—small cell lung cancer cell line; H1975—non-small cell lung cancer cell line harboring L858R and T790M mutations in EGFR TK; A549—a non-small cell lung cancer cell line with wild type EGFR; LNCap—prostate cancer cell line; SW620—colon cancer cell line; MiaPaCa2—pancreatic cancer cell line; PANC1—pancreatic cancer cell line; OVCAR3—ovarian cancer cell line; SK-OV-3—ovarian cancer cell line.
(§2) For viability analysis, cells were seeded into 96-well plates at 2×10^3-6×10^3 cells/well; the plated number of cells depended on cell size and rate of proliferation aiming for approximately 50% confluency. After seeding, the cells were allowed to attach for 24 hours incubated at 37° C. in a humidified 5% CO2 atmosphere.
(§3) The treatments were performed using at least 6 different concentrations of a compound in 1:3 serial dilutions in DMSO such that the DMSO concentration in the cell medium was <1%. The cell cultures were incubated for an additional 96 hours in 5% CO2 incubator at 37° C. Treatments were performed in triplicate. Results were analyzed by CellTiter-Glo™ Luminescent Cell Viability Assay (Promega, cat. #G7571) according to the manufacturer's instructions using Spectra MAX Gemini Spectrophotometer (Molecular Devices).

DMS273 cells [1] = assay: CellTiter-Glo cell viability assay, DMS273 cells; conditions: Homo sapiens, DMS-273, DMS273 cells
Description: as §1, §2, §3

SW620 cells [2] = assay: CellTiter-Glo cell viability assay, SW620 cells; conditions: Homo sapiens, SW-620, SW620 cells
Description: as §1, §2, §3

HCC827 cells = assay: CellTiter-Glo cell viability assay, HCC827 cells; conditions: Homo sapiens
Experimental: as §2, §3

SK-OV-3 cells = assay: CellTiter-Glo cell viability assay, SK-OV-3 cells; conditions: Homo sapiens, SK-OV-3, SK-OV-3 cells
Description: as §1, §2, §3

A549 cells = assay: CellTiter-Glo cell viability assay, A549 cells; conditions: Homo sapiens
Description: as §1, §2, §3

LNCap cells = assay: CellTiter-Glo cell viability assay, LNCap cells; conditions: Homo sapiens
Description: as §1, §2, §3

DMS273 cells [3] = assay: FACS cell cycle distribution (Acridine Orange), DMS273 cells; conditions: mitotic inhibitor alone, FBS+ media, 24 hours (2.7 nM paclitaxel; 1.1 nM vincristine; 8.1 nM vinorelbine)
Description: as §1
(§4) Cell cultures were seeded into 6-well plates at 3×10^5-6×10^5 cells/well; the plated number of cells depended on cell size and rate of proliferation, aiming for approximately 50% confluency. After seeding, the cells were allowed to attach for 24 hours while incubated at 37° C. in a humidified 5% CO2 atmosphere, and then treated with compounds for desired amount of time (usually 24 hours) incubating under same conditions. Then the cells were harvested by trypsinization, pooled with the floating cells, washed in PBS, and fixed in 70% ice-cold ethanol overnight. For Acridine Orange (AO) staining, fixed cells were washed once with ice-cold PBS, re-suspended in 100 μL PBS, followed by addition of 200 μL of permeabilizing solution and 600 μL AO staining solution. The measurements were performed with Guava easyCyte HT flow cytometer (EMD Millipore) using the blue laser for excitation at 488 nm, monitoring emission of the AO-DNA complex at 526 nm and AO-RNA complex at 650 nm. The complete protocol and composition of buffers are described in the literature (Darzynkiewicz Z, Juan G, and Srour E F (2004) Differential Staining of DNA and RNA (2004). Current Protocols in Cytometry, Chapter 7:Unit 7.3).

SW620 cells [4] = assay: FACS cell cycle distribution (Acridine Orange), SW620 cells; conditions: paclitaxel alone (2 nM), FBS+ media, 24 hours
Description: as §1, §4

H1975 cells = assay: CellTiter-Glo cell viability assay, H1975 cells; conditions: Homo sapiens, NCI-H1975, H1975 cells
Description: as §1, §2, §3

EC50 (OVCAR3 cells; Compound I-7 not present) [nM]	EC50 (OVCAR3 cells; Compound I-7 present at 2 μM) [nM]	EC50 (OVCAR3 cells; Compound I-7 present at 4 μM) [nM]	EC50 (SW620 cells [2]; Compound I-5 not present) [nM]	EC50 (SW620 cells [2]; Compound I-5 present at 2 μM) [nM]	EC50 (SW620 cells [2]; Compound I-5 present at 4 μM) [nM]	EC50 (HCC827 cells; Compound I-7 not present) [nM]	EC50 (SK-OV-3 cells; Compound I-7 not present) [nM]	EC50 (SK-OV-3 cells; Compound I-7 present at 2 μM) [nM]	EC50 (SK-OV-3 cells; Compound I-7 present at 4 μM) [nM]	EC50 (A549 cells; Compound I-7 not present) [nM]	EC50 (A549 cells; Compound I-7 present at 2 μM) [nM]	EC50 (A549 cells; Compound I-7 present at 4 μM) [nM]	EC50 (OVCAR3 cells; Compound I-7 present at 3 μM) [nM]	EC50 (SK-OV-3 cells; Compound I-7 present at 8 μM) [nM]	Compound	EC50 (DMS273 cells [1]; Compound I-7 not present) [nM]	EC50 (DMS273 cells [1]; Compound I-7 present at 2 μM) [nM]	EC50 (DMS273 cells [1]; Compound I-7 present at 4 μM) [nM]	pharmacological quiescence (fraction of cells in G0 phase) (DMS273 cells [3])	EC50 (DMS273 cells [1]; Compound I-5 not present) [nM]	other results
0.85	0.52	< 0.04	2.85	0.69	< 0.015	1.8	2.5	1.5	0.3	1.4	0.6	0.1	–	–	CC(=O)O[C@@]12CO[C@@H]1C[C@H](O)[C@@]1(C)C(=O)[C@H](O)C3=C(C)[C@@H](OC(=O)[C@H](O)[C@@H](NC(=O)OC(C)(C)C)c4ccccc4)C[C@@](O)([C@@H](OC(=O)c4ccccc4)[C@H]21)C3(C)C [docetaxel]	0.64	0.38	0.14	–	–	EC50 (HCC827 cells; Compound I-7 present at 2 μM): 0.6 nM; EC50 (HCC827 cells; Compound I-7 present at 4 μM): 0.03 nM
3.3	–	–	8.1	2.3	0.2	4.2	9.7	9.4	4.8	4.8	–	–	2.8	4.7	CC(=O)O[C@H]1C(=O)[C@@]2(C)[C@H]([C@H](OC(=O)c3ccccc3)[C@]3(O)C[C@H](OC(=O)[C@H](O)[C@@H](NC(=O)c4ccccc4)c4ccccc4)C(C)=C1C3(C)C)[C@]1(OC(C)=O)CO[C@@H]1C[C@@H]2O [paclitaxel]	2.7	1.9	0.9	does not result in pharmacological quiescence	–	EC50 (OVCAR3 cells; Compound I-7 present at 6 μM): 1.7 nM; EC50 (LNCap cells; Compound I-5 not present): 3.2 nM; EC50 (LNCap cells; Compound I-5 present at 2 μM): 2.1 nM; EC50 (LNCap cells; Compound I-5 present at 4 μM): 0.9 nM; EC50 (HCC827 cells; Compound I-7 present at 3 μM): 2.5 nM; EC50 (HCC827 cells; Compound I-7 present at 6 μM): 0.6 nM; EC50 (SK-OV-3 cells; Compound I-7 present at 10 μM): 5.2 nM; EC50 (A549 cells; Compound I-7 present at 3 μM): 2.5 nM; EC50 (A549 cells; Compound I-7 present at 6 μM): 0.7 nM; pharmacological quiescence (fraction of cells in G0 phase) (SW620 cells [4]): does not result in pharmacological quiescence
1.2	0.8	0.1	–	–	–	–	8.7	–	2.1	–	–	–	–	1	CC[C@]1(O)C[C@H]2CN(CCc3c([nH]c4ccccc34)[C@@](C(=O)OC)(c3cc4c(cc3OC)N(C=O)[C@H]3[C@@](O)(C(=O)OC)[C@H](OC(C)=O)[C@]5(CC)C=CCN6CC[C@]43[C@@H]65)C2)C1 [vincristine]	–	–	–	does not result in pharmacological quiescence	1.1	EC50 (DMS273 cells [1]; Compound I-5 present at 2 μM): 0.4 nM; EC50 (DMS273 cells [1]; Compound I-5 present at 4 μM): < 0.04 nM; EC50 (H1975 cells; Compound I-5 not present): 1.5 nM; EC50 (H1975 cells; Compound I-5 present at 2 μM): 0.85 nM; EC50 (H1975 cells; Compound I-5 present at 4 μM): 0.35 nM
2.4	–	–	–	–	–	–	15.1	10.1	4.7	27	16	6	0.1	–	CCC1=C[C@@H]2CN(C1)Cc1c([nH]c3ccccc13)[C@@](C(=O)OC)(c1cc3c(cc1OC)N(C)[C@H]1[C@@](O)(C(=O)OC)[C@H](OC(C)=O)[C@]4(CC)C=CCN5CC[C@]31[C@@H]54)C2 [vinorelbine]	–	–	–	does not result in pharmacological quiescence	1.1	EC50 (OVCAR3 cells; Compound I-7 present at 1 μM): 2.4 nM; EC50 (DMS273 cells [1]; Compound I-5 present at 2 μM): 0.4 nM; EC50 (DMS273 cells [1]; Compound I-5 present at 4 μM): < 0.04 nM; EC50 (H1975 cells; Compound I-5 not present): 9.5 nM; EC50 (H1975 cells; Compound I-5 present at 2 μM): 5.2 nM; EC50 (H1975 cells; Compound I-5 present at 4 μM): 2.1 nM
